What was measured:
[1] = tested on: A498; test: NCI 60 cell line screen, sulforhodamine B, 48 h; assay type: cell-based, human
Method: (§1) A detailed description of the screening procedure can be found at hypertext transfer protocol (http://) “dtp.nci.nih.gov/branches/btb/ivclsp.html.”
(§2) In brief, each of the 60 human tumor cell lines were grown in RPMI 1640 medium, supplemented with 5% fetal bovine serum and 2 mM L-glutamine. Cells were plated at their appropriate density in 96-well microtiter plates and incubated at 37° C., 5% CO2, 95% air and 100% relative humidity. […] Cells were incubated for an additional 48 hours and a sulforhodamine B protein assay was used to estimate cell viability or growth.

[2] = tested on: HCT-15; test: NCI 60 cell line screen, sulforhodamine B, 48 h; assay type: cell-based, human
Method: as §1, §2

[3] = tested on: M14; test: NCI 60 cell line screen, sulforhodamine B, 48 h; assay type: cell-based, human
Method: as §1, §2

[4] = tested on: MDA-MB-231/ATCC; test: NCI 60 cell line screen, sulforhodamine B, 48 h; assay type: cell-based, human; details: Breast Cancer
Method: as §1, §2

[5] = tested on: NCI-H236; test: NCI 60 cell line screen, sulforhodamine B, 48 h; assay type: cell-based, human; details: NCI-H236, Non-Small Cell Lung Cancer
Method: as §1, §2

[6] = tested on: NCI-H460; test: NCI 60 cell line screen, sulforhodamine B, 48 h; assay type: cell-based, human; details: NCI-H460, Non-Small Cell Lung Cancer
Method: as §1, §2

[7] = tested on: RPMI-8226; test: NCI 60 cell line screen, sulforhodamine B, 48 h; assay type: cell-based, human
Method: as §1, §2

[8] = tested on: SF-539; test: NCI 60 cell line screen, sulforhodamine B, 48 h; assay type: cell-based, human; details: SF-539, CNS Cancer
Method: as §1, §2

[9] = tested on: SK-MEL-2; test: NCI 60 cell line screen, sulforhodamine B, 48 h; assay type: cell-based, human; details: SK-MEL-2, Melanoma
Method: as §1, §2

[10] = tested on: SNB-19; test: NCI 60 cell line screen, sulforhodamine B, 48 h; assay type: cell-based, human
Method: as §1, §2

[11] = tested on: 60 human tumor cell lines; test: NCI screening panel, values over all cell lines; assay type: cell-based
[12] = tested on: MIA PaCa-2; test: Cell growth inhibition, resazurin, 48 h; assay type: cell-based; details: Homo sapiens; MIA PaCa-2, 48 h drug exposure
[13] = tested on: PANC-1; test: Cell growth inhibition, resazurin, 48 h; assay type: cell-based; details: Homo sapiens; PANC-1, 48 h drug exposure
[14] = tested on: Jurkat; test: Cytotoxicity against Jurkat cells; assay type: cell-based, human
[15] = molecular target: Thrombin (Homo sapiens, UniProt P00734); test: Specificity: inhibition of other proteolytic enzymes; assay type: biochemical
[16] = tested on: IκBα in HEK293 cells and NF-κB/Luc 293 reporter clone; test: Western blot of phosphorylated and total IκBα; assay type: cell-based, human; details: 50 and 500 nM, 1 hour pretreatment, TNF-α 30 minutes
Method: Endogenous protein levels were assessed in both HEK293 cells and the NF-κB/Luc 293 reporter clone.
Antibodies against total and phosphorylated forms of IκBα were used to determine the endogenous level of each protein and anti-Tubulin antibody was used to confirm equal loading of protein.

[17] = tested on: Caspase-3 activity in Jurkat cells; test: Caspase-3 activity assay (EnzChek); assay type: cell-based, human; details: EC50 concentration, 19 hours
Method: Jurkat cells were plated at 2×10^6 cells/3 mL per well in a 6-well plate and incubated at 37° C., 5% (v/v) CO2 and 95% (v/v) humidity. […] Bhalla, et al., Blood 82:3133 (1993). […] Cells treated with 0.25% DMSO served as the negative control. The cells were collected by centrifugation and the media removed. Cell pellets were processed for the Caspase-3 activity assay as described in the manufacturer's protocol (EnzChek Caspase-3 Assay Kit from Molecular Probes (E-13183; see Appendix G, which form a part of this application and is also available at hypertext transfer protocol on the worldwide web at “probes.com/media/pis/mp13183.pdf.”. In brief, cell pellets were lysed on ice, mixed with the EnzChek Caspase-3 components in a 96-well plate, and then incubated in the dark for 30 minutes prior to reading fluorescence of cleaved benzyloxycarbonyl-DEVD-AMC using a Packard Fusion with λex=485 nm and λem=530 nm filters. Protein concentrations for lysates were determined using the BCA Protein Assay Kit (Pierce) and these values were used for normalization.

[18] = tested on: PARP in Jurkat cells; test: PARP cleavage, western blot; assay type: cell-based, human; details: 100 nM Salinosporamide A 2-24 hrs; […] nM Staurosporine 4 hrs
[19] = Maximum Tolerated Dose (MTD) determination; assay type: in vivo, female BALB/c mice
From the text: In vivo studies were designed to determine the MTD of Salinosporamide A when administered intravenously to female BALB/c mice.
Animals were observed daily for clinical signs and were weighed individually twice weekly until the end of the experiment (maximum of 14 days after the last day of dosing).

[20] = tested on: HL-60(TB); details: Leukemia
[21] = tested on: RAW264.7 cells; details: 12 nM, compound alone
[22] = mean graph midpoint over all cell lines

**Q.** Which “Log10 G150” value ([1]; A498, Renal Cancer) does the source give for `C[C@@]12OC(=O)[C@]1([C@@H](O)[C@@H]1C=CCCC1)NC(=O)[C@@H]2CCCl` [Formula II-16, Salinosporamide A] here?
**A.** The value was under -8.00 Molar.

**Q.** What about the “Log10 TGI” value ([1]; A498, Renal Cancer) of the same molecule?
**A.** Its value is under -8.00 Molar.

**Q.** And the CC50 ([1]; Homo sapiens, A498, read-out: Log10 LC50 (converted))?
**A.** Its CC50 is 11.5 nM.

**Q.** What about the “Log10 G150” value ([2]; HCT-15, Colon Cancer) of the same molecule?
**A.** The value was under -8.00 Molar.

**Q.** And the “Log10 TGI” value ([2]; HCT-15, Colon Cancer)?
**A.** Its value is -6.06 Molar.

**Q.** What about the CC50 ([2]; Homo sapiens, HCT-15, read-out: Log10 LC50 (converted)) of the same molecule?
**A.** Its CC50 is 56200 nM.

**Q.** What about the CC50 ([3]; Homo sapiens, M14, read-out: Log10 LC50 (converted)) of the same molecule?
**A.** Its CC50 is 186 nM.

**Q.** And the “Log10 G150” value ([3]; M14, Melanoma)?
**A.** The value was under -8.00 Molar.

**Q.** And the “Log10 TGI” value ([3]; M14, Melanoma)?
**A.** The value was -7.94 Molar.

**Q.** And the “Log10 G150” value [4]?
**A.** The value was under -8.00 Molar.

**Q.** What about the “Log10 TGI” value [4] of the same molecule?
**A.** The value was under -8.00 Molar.

**Q.** And the “Log10 G150” value [5]?
**A.** Its value is under -8.00 Molar.

**Q.** What about the “Log10 TGI” value [5] of the same molecule?
**A.** Its value is under -8.00 Molar.

**Q.** And the “Log10 G150” value [6]?
**A.** The value was under -8.00 Molar.

**Q.** And the “Log10 TGI” value [6]?
**A.** Its value is -6.97 Molar.

**Q.** And the CC50 ([7]; Homo sapiens, RPMI-8226, read-out: Log10 LC50 (converted))?
**A.** Its CC50 is over 100000 nM.

**Q.** What about the “Log10 G150” value ([7]; RPMI-8226, Leukemia) of the same molecule?
**A.** Its value is under -8.00 Molar.

**Q.** What about the “Log10 TGI” value ([7]; RPMI-8226, Leukemia) of the same molecule?
**A.** Its value is under -8.00 Molar.

**Q.** And the “Log10 G150” value [8]?
**A.** The value was under -8.00 Molar.

**Q.** And the “Log10 TGI” value [8]?
**A.** Its value is under -8.00 Molar.

**Q.** And the “Log10 G150” value [9]?
**A.** The value was under -8.00 Molar.

**Q.** And the “Log10 TGI” value [9]?
**A.** The value was under -8.00 Molar.

**Q.** What about the CC50 ([10]; Homo sapiens, SNB-19, read-out: Log10 LC50 (converted)) of the same molecule?
**A.** The CC50 was over 100000 nM.

**Q.** And the “Log10 G150” value ([10]; SNB-19, CNS Cancer)?
**A.** Its value is under -8.00 Molar.

**Q.** What about the “Log10 TGI” value ([10]; SNB-19, CNS Cancer) of the same molecule?
**A.** The value was over -4.00 Molar.

**Q.** And the GI50 ([11]; Homo sapiens, read-out: mean GI50 value)?
**A.** Its GI50 is under 10 nM.

**Q.** And the “Deka Log10 G150” value ([11]; log units)?
**A.** The value was 0.00.

**Q.** What about the “Deka Log10 TGI” value ([11]; log units) of the same molecule?
**A.** Its value is 1.21.

**Q.** And the “Range Log10 G150” value ([11]; log units)?
**A.** Its value is 0.00.

**Q.** What about the “Range Log10 TGI” value ([11]; log units) of the same molecule?
**A.** Its value is 4.00.

**Q.** What about the “MG_MID Log10 G150” value [11, 22] of the same molecule?
**A.** The value was -8.00 Molar.

**Q.** What about the “MG_MID Log10 TGI” value [11, 22] of the same molecule?
**A.** Its value is -6.79 Molar.

**Q.** And the EC50 [12]?
**A.** The EC50 was 46 nM.

**Q.** And the EC50 [13]?
**A.** Its EC50 is 60 nM.

**Q.** What about the EC50 ([14]; Homo sapiens, Jurkat) of the same molecule?
**A.** The EC50 was 10 nM.

**Q.** What about the “% max cell kill” value ([14]; Jurkat cells) of the same molecule?
**A.** The value was 97%.

**Q.** And the EC50 [15]?
**A.** The EC50 was over 200000 nM.

**Q.** And the “total IκBα and phospho-IκBα level” value [16]?
**A.** The value was “reduced the degradation of total IκBα but also retained the phospho-IκBα level”.

**Q.** And the Caspase-3 activity [17]?
**A.** The Caspase-3 activity was “activation of Caspase-3”.

**Q.** What about the PARP cleavage [18] of the same molecule?
**A.** Its PARP cleavage is “cleavage of PARP within the Jurkat cells in a time-dependent fashion”.

**Q.** And the well tolerated dose ([19]; i.v. daily for five consecutive days)?
**A.** Its well tolerated dose is “up to 0.1 mg/kg”.

**Q.** And the tolerated dose ([19]; single intravenous dose)?
**A.** Its tolerated dose is “up to 0.25 mg/kg”.

**Q.** And the “Log10 G150” value [20]?
**A.** The value was under -8.00 Molar.

**Q.** What about the “Log10 TGI” value [20] of the same molecule?
**A.** The value was -4.32 Molar.

**Q.** What about the viability [21] of the same molecule?
**A.** Its viability is 96%.

Source: US7572606B1 (Nereus Pharmaceuticals, Inc., priority 2005, dated 2009)
